Results taken from article PMC12930396, “Positive modulators of N-methyl-D-aspartate receptor: structure–activity relationship study on steroidal C-17 and C-20 oxime ethers” (RSC Advances, 2026).
≈ marks a conversion by molar mass, not a printed value. Counter-ions that a name gives are not always drawn.

How the values were obtained:
NMDA receptors = conditions: cited from earlier work; for Activity at NMDARs: C-17 ketone steroids
GluN1/GluN2B receptors = target: T1, GluN1/GluN2B receptors (Rattus norvegicus, UniProt P35439+Q00960); parameters: method as in PMID 29708744; conditions: reference compound PES; cited from earlier work
T1 construct: expressed in transfected cells; host or cells: HEK293 cells (ATCC No. CRL-1573)
T1 sequence (Q00960 27-1482, other chains not shown): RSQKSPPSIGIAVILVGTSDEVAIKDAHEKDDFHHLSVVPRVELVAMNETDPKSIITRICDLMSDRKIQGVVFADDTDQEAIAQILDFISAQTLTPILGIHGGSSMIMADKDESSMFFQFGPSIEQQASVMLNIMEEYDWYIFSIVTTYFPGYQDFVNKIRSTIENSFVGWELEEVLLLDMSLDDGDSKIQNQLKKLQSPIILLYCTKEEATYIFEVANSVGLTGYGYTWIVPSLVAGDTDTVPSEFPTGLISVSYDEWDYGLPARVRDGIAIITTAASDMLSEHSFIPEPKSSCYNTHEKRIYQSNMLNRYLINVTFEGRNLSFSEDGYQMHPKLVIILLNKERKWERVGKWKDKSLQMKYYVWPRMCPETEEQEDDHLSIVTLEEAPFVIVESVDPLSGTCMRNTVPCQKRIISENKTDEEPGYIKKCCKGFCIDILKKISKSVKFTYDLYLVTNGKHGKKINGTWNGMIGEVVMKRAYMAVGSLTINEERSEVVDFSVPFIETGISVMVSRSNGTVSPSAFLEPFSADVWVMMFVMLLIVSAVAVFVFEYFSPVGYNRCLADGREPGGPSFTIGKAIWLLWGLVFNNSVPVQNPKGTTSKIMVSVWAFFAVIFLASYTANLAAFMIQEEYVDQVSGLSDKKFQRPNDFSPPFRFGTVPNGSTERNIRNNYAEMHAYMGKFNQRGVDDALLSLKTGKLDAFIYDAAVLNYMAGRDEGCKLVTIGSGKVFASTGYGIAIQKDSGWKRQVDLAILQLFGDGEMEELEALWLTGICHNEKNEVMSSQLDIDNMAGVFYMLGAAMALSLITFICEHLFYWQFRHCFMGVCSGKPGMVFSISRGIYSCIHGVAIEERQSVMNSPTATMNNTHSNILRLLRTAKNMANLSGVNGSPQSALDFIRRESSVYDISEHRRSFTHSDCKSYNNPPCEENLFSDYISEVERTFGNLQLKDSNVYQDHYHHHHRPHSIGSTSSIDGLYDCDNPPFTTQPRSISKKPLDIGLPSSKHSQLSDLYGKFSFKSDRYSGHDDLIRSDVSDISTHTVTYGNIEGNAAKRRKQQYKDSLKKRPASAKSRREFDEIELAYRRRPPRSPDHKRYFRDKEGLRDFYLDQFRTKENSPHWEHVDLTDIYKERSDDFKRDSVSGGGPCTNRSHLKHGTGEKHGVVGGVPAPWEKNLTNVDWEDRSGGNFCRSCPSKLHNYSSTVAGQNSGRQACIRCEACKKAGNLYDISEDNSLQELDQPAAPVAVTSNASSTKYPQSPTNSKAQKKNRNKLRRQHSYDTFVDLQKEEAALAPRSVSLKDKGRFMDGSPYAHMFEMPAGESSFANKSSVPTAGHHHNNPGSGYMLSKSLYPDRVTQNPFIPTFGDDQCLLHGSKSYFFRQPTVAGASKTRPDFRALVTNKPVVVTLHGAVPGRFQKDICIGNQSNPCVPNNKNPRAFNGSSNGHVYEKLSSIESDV

Stability in rat plasma = type: in vitro ADME; conditions: rat, plasma
Description: Compounds were prepared as 1.6 mg mL^−1 stock solutions in methanol. Then, 20 µL of stock solution was added to 1000 µL of rat plasma (BioIVT, Cat. No. RAT00PLLH-0102307), maintained at 37 °C. Aliquots (50 µL) withdrawn at 0, 8, and 24 h were analyzed by HPLC. An aliquot of plasma was extracted with methanol (450 µL) containing an internal standard, and the solution was vortexed (20 s) and centrifuged at 13 500 rpm for 10 min. The supernatant was transferred to an autosampler vial, and 10 µL was injected into an LC-MS system. The samples were analyzed using an Agilent 6230 TOF LC/MS. Samples were separated on a Waters ACQUITY UPLC CSH Phenyl-Hexyl column (100 × 2.1, 130 Å, 1.7 µm) at a flow rate of 0.3 mL min^−1. […]. The temperature, the flow rate of the nitrogen drying gas, the pressure of the nitrogen nebulizing gas, and the flow rate of the sheath gas were set at 325 °C, 10 L min^−1, 40 psi, […], and 11 L min^−1, respectively. Results are represented as a percentage of the compound remaining in spiked plasma.

[1] = Thermodynamic solubility in PBS pH 7.4; type: physicochemical; conditions: 20 °C, pH 7.4, aqueous buffer, thermodynamic from solid, Solubility PBS, pH 7.4 (thermodynamic)
Description: The reference samples were prepared as follows: a weight corresponding to 2.5 µmol was dissolved in 250 µL of DMSO, resulting in a concentration of 10 mM stock solution. Each calibration level standard was prepared by diluting the stock solution in a mixture of PBS and acetonitrile (50 : 50 v/v). The samples for testing were prepared as follows: the volume of 1000 µL of PBS was added to the testing tube containing a weight of sample corresponding to 0.4 mM. The mixture was shaken at 1000 rpm at 20 °C for 24 h. The mixture was then filtered using a syringe polypropylene 0.45 µm filter. Samples and calibration standards are prepared using an automated system of a robotic arm (PAL-RTC, Switzerland). Then, the sample was analysed on chromatographic system (Vanquish UHPLC, Thermo Fisher Scientific, Germany) connected to the diode array detector and consequently to the charged aerosol detector (both Vanquish, Thermo Fisher Scientific, Germany), Thermo Scientific Accucore C8 (100 × 3 mm; 2.6 µm) column, using gradient elution with acetonitrile/methanol/5 mM formate buffer (pH = 3.00); flow: 1.0 cm^3 min^−1; column temperature: 40 °C; CAD temperature: 30 °C; sample volume: 5 mm^3.

Molecule: C[C@]12CC[C@H](O)CC1=CC[C@@H]1[C@@H]2CC[C@]2(C)C(=O)CC[C@@H]12 [dehydroepiandrosterone, 3β-hydroxy-androst-5-en-17-one]
- Activity at NMDARs (NMDA receptors): inactive

Molecule: CC(=O)[C@H]1CC[C@H]2[C@@H]3CC[C@@H]4C[C@H](OS(=O)(=O)O)CC[C@]4(C)[C@H]3CC[C@]12C [PAS, 20-oxo-5β-pregnan-3α-yl sulfate]
- IC50 (NMDA receptors; in Fig. 1, read-out: IC50, negative allosteric modulation of NMDA receptors): 24.6 µM

Molecule: 20-oxo-pregn-5-en-3β-yl sulfate [PES]
- E max ± SEM (GluN1/GluN2B receptors): 116 ± 10%
- h ± SEM (apparent Hill coefficient) (GluN1/GluN2B receptors): 1.5 ± 0.1

Molecule: C[C@]12CC[C@H](OS(=O)(=O)O)CC1=CCC1C2CC[C@]2(C)C(=O)CCC12 (some centres unmarked) [dehydroepiandrosterone sulfate]
- Activity at NMDARs (NMDA receptors): inactive

Molecule: CC(=O)[C@H]1CC[C@H]2[C@@H]3CC=C4C[C@@H](OC(=O)CCCCC(=O)O)CC[C@]4(C)[C@H]3CC[C@]12C [20-Oxo-PE-hAdi, 20-Oxo-pregn-5-en-3β-yl hemiadipate, reference compound]
- Stability in rat plasma (% remaining) 8 h (Stability in rat plasma; 8 h): 11 ± 0 % remaining
- Stability in rat plasma (% remaining) 24 h (Stability in rat plasma; 24 h): 2 ± 0 % remaining
- solubility thermodynamic at 24 h [1]: 20 ± 2 µM (≈ 8.89 µg/mL)
